In patent US12667584B2, “Adenosine analog and its use in regulating the circadian clock” (NATIONAL INSTITUTE OF BIOLOGICAL SCIENCES, BEIJING, priority 2017, dated 2026):

Tested on: C57BL/6j mice
Experiment: Wheel running jet-lag experiment, 8 h phase advance or delay
Type: in vivo, mouse
Method: Wheel running experiment: Male C57Bj/6 mice at 7 w old were purchased from the Nanjing Biomedical Research Institute of Nanjing University introduced from Jackson Laboratory, housed in individually wheel-running cage in a temperature- and humidity-controlled SPF facility, with ad libitum access to food and water. The animals were entrained under 12 h light/dark photoperiod for two weeks to synchronize the endogenous circadian clock of the mice to the ambient light-dark cycle, light intensity is about 50˜100 lux. After synchronization, light-dark cycles were 8-hr phase-advanced or phase-delayed. On the day of light-dark cycle was shifted advance, mice were firstly fasted at CT 3, then 15 mg/kg bw CA03, 15 and 30 mg/kg bw pro-CA03, 15 and 30 mg/kg bw pro-CA04 or DMSO were intraperitoneal injection at CT 12, and light on time (CT 0) was shifted from 7 am to 11 pm), finally re-feed and inject drug again at CT 23 of the old light-dark cycle. CA03 and pro-CA04 were firstly dissolved in DMSO to the concentration of 200 μg/μl, then dilute with saline to the final concentration of 1000 μg/ml for intraperitoneal injection. Pro-03 was firstly dissolved in DMSO to the concentration of 200 μg/μl, then dilute with 2% tween80 (in sterilized water) to the final concentration of 1000 μg/ml for intraperitoneal injection. On the day of light-dark cycle was shifted delayed, mice were firstly fasted at ZT 3, then 15 mg/kg bw CA03, 15 and 30 mg/kg bw pro-CA03, 15 and 30 mg/kg bw pro-CA04 or DMSO were intraperitoneal injection at CT 12, and light off time (CT12) was shifted from […] to 3 am), finally re-feed and inject drug again at CT 23 of the old light-dark cycle. Locomotor activity was recorded in 10-min bins wheel running (Actimetrics), and the data obtained were analysed with Clocklab software (Actimetrics). All animal experimental procedures were performed in accordance with the protocol approved by the Institutional Animal Care and Usage Committee (IACUC) of the National Institute of Biological Sciences, Beijing.
Under a standard jet-lag protocol {Yamaguchi, 2013}, wild-type C57BL/6j mice usually take ˜10 d to adapt to 8 h phase advance. […] Similarly, the drug treated mice adapt faster to the phase delay (FIG. 2D&2E).
To test whether cordycepin function in vivo, we firstly tested luciferase signal level by live imaging of Per2:LUC mice after intraperitoneal injection of 15 mg/kg cordycepin or DMSO. We found cordycepin induce more than 4 folds increase of luciferase signal in liver when compared with DMSO control (A). […] We also reconfirmed endogenous transcription rate of core clock genes by measuring the pre-mRNA with qPCR in the liver (B). We examined RRE genes (including Bmal1, Clock, Npas2, Cry1 and Nfil3), internal control genes (including Gapdh, Tbp and Actin) and E-box genes (including Per1, Per2, Dbp and Nr1d1). We designed at least 2 primers for each gene. […] Prior evaluation the jet-leg cure ability of cordycepin, we detected whether cordycepin and it's prodrug pro-CA03 can penetrate BBB. We injected cordycepin or pro-CA03 via tail vein and time course sampled CSF and analyzed cordycepin pro-CA03 level with HPLC-MASS method. […] Finally we evaluated the jet-leg cure ability of cordycepin, pro-CA03 and Pro-CA04 with mice behavioral experiment. Wild-type C57BL/6j mice typically take ˜10 days to adapt to an 8 h phase advance. […]

Question: How did the “adaptation time in phase-delay assay” value (DMSO 6 days) turn out when `Nc1ncnc2c1ncn2[C@@H]1O[C@H](CO)C[C@H]1O` [Cordycepin, 3′-deoxy-adenosine] was run?
Answer: 3 days

Question: And the “adaptation time to 8 h phase advance” value (twice injection, DMSO ~10 d)?
Answer: 4 days
